Results on twelve compounds are retold here after US5441973A, “N-acyl-4-phenyl-pyrrolidin-2-ones and method for preparing” (Arzneimittelwerk Dresden G.m.b.H., priority 1990, dated 1995).

The conditions of data set [1]: from prior patents / known; cited from earlier work.
Data set [2] in a line: in vivo. As to conditions: mouse, ip.

Turning to `O=C1CC(c2ccc(Cl)cc2)CN1` (stereo not drawn) [4-(4-chlorophenyl)-pyrrolidin-2-one], the “CNS effect reported in prior publications” value (shortened to “CNS effect reported”) in data set [1] was “anticonvulsive effect”.
In data set [2], `CCCC(CCC)C(=O)O` [Ca-Valproate] came in with an LD50 of 455 mg/kg.
Regarding `CCCC(CCC)C(=O)N1CCCC1=O` [N-dipropylacetylpyrrolidin-2-one], in data set [1], the “CNS effect reported” value is recorded as “nootropic effects”.
For the compound `NC(=O)CN1CCCC1=O` [Piracetam], in data set [2], the LD50 was more than 2000 mg/kg.
Consider `NC(=O)N1c2ccccc2C=Cc2ccccc21` [carbamazepine], for which the “CNS effect reported” value in data set [1] is reported as “nootropic effects”.
Regarding `CCCC(CCC)C(=O)N1CC(c2ccccc2)CC1=O` (stereo not drawn) [compound 1], the LD50 in data set [2] amounted to 1630 mg/kg.
`CCCC(CCC)C(=O)N1CC(c2ccc(Cl)cc2)CC1=O` (stereo not drawn) [compound 2] had an LD50 in data set [2] of more than 2000 mg/kg.
Compound `COc1ccc(C(=O)N2CC(c3ccccc3)CC2=O)cc1` (stereo not drawn) [compound 3] displayed an LD50 in data set [2] of more than 2000 mg/kg.
The compound `COc1ccc(C(=O)N2CC(c3ccc(Cl)cc3)CC2=O)cc1` (stereo not drawn) [compound 4] had an LD50 in data set [2] of more than 2000 mg/kg.
`O=C(COc1ccc(Cl)cc1)N1CC(c2ccc(Cl)cc2)CC1=O` (stereo not drawn) [compound 5] showed an LD50 in data set [2] of more than 2000 mg/kg.
Same read-out and setting: as for `CCOC(=O)C1C(=O)N(C(=O)c2ccc(OC)cc2)CC1c1ccccc1` (stereo not drawn) [compound 6], the figure is more than 2000 mg/kg.
For `CCCC(CCC)C(=O)O` [dipropylacetic acid], in data set [1], the “CNS effect reported” value is on record as “nootropic effects”.
